According to US4536402A, “Vinylogous carboxamides” (Dr. Karl Thomae Gesellschaft mit beschranter Haftung, priority 1982, dated 1985):
Read-outs that look alike come from different tables or passages of the source.

Tests used:
[1] = test system: tonic extensor spasm in the back legs of male mice subjected to maximum electric shock; test: Anticonvulsant activity in mice: inhibition of tonic extensor spasm after maximum electric shock; assay type: in vivo, male SPF mice (Chbb:NMRI); conditions: Mus musculus, oral
Experimental: The anticonvulsant activity was tested by measuring the inhibition of tonic extensor spasm in the back legs of male mice subjected to maximum electric shock.
The test animals used were male SPF mice (Chbb:NMRI) weighing from 20-26 gm which had access to standard food and drinking water up to one hour before the oral administration of the test substance.
The test was carried out using the method described by Swinyard, Brown and Goodman (J. Pharmacol. Exp. Ther. 106, 319, [1952]). The electric shock apparatus was constructed in accordance with the specifications provided by Woodbury and Davenport (Arch. Int. Pharmacodyn. 92, 97, [1952]). The electrical stimuli were administered to the animals' temples above their eyes, through steel ball electrodes covered with chamois and moistened with 0.9% NaCl solution. The stimuli were administered using alternating current, 50 Hz and 50 mA, with a duration of 0.2 sec.
The substance to be tested was suspended in 1% tylose mucilage and administered orally in a volume of 0.1 ml/10 gm body weight of the mice, each dosage being administered to 10 mice. The animals were given the shocks 30, 150 and 300 minutes after the administration of the test substance, and the ED50 values were determined graphically or by using the method of Litchfield and Wilcoxon (J. Pharmacol. Exp. Ther. 96, 99, [1949]) from the dosage which protects 50% of the animals from the tonic extension spasm of the rear extremities.

[2] = test system: mice; test: Approximate acute toxicity in mice, p.o.; assay type: in vivo; conditions: for Number of animals which died in 14 days: mice
Description: (§1) Approximate acute toxicity in mice, compound A, p.o.

[3] = Approximate acute toxicity in mice, p.o.; assay type: in vivo; conditions: in vivo; mouse, oral, 14 days
Description: as §1

[4] = test system: fatty and cartilaginous tissue (kidney fat and sternum); test: Tests for yellow coloration of fatty and cartilaginous tissue in the rat; assay type: in vivo, male rats, Chbb:THOM (SPF)
Experimental: The yellow coloration of fatty and cartilaginous tissue following the oral administration of 50 and 400 mg/kg of compound E and compound A once a day over a period of 51/2 weeks was investigated. The compounds were homogeneously suspended in 1.5% tylose by several hours' stirring. The compounds were administered through an esophageal tube. The volume administered was about 1.4 ml. 9 to 11 male rats [of the Chbb:THOM (SPF) strain] with a body weight of 263±10 gm were used for each dose. At different times, animals were taken from the four treated groups and one control group and the kidney fat and sternum were removed after the animal had been bled from the abdominal aorta.

[5] = test system: rat; test: Acute toxicity in the rat, p.o.; assay type: in vivo; conditions: for Animals which died in 14 days: N=10
Description: (§2) Acute toxicity in the rat, compound A, p.o.

[6] = Acute toxicity in the rat, p.o.; assay type: in vivo; conditions: in vivo; for mortality at 336 h: N=10, read-out: Animals which died in 14 days, %
Description: as §2

[7] = test system: tonic extensor spasms in the back legs of male rats subjected to maximum electric shock; test: Anticonvulsant activity in rats: inhibition of tonic extensor spasms after maximum electric shock; assay type: in vivo, male SPF rats (Chbb:THOM); conditions: for % protected / animals protected: N=6, one hour
Experimental: The anticonvulsant activity was tested by measuring the inhibition of tonic extensor spasms in the back legs of male rats subjected to maximum electric shock.
The test animals used were male SPF rats (Chbb:THOM) weighing from 100-120 gm which had access to standard food and drinking water up to one hour before the oral administration of the test substance.
The test was carried out using the method described by Swinyard, Brown and Goodman (J. Pharmacol. Exp. Ther. 106, 319, [1952]). The electric shock apparatus was constructed in accordance with the specifications provided by Woodbury and Davenport (Arch. Int. Pharmacodyn. 92, 97 [1952]). The electrical stimuli were applied to the temples above the eyes, using moistened steel ball electrodes. The parameters of the stimuli were as follows: alternating current 50 Hz, 50 mA, duration of stimulus 0.2 sec. In all the control animals, clonic and then tonic extension spasm of the extremities occurred; the latter can be prevented by means of effective anticonvulsant agents.
The substance to be tested was suspended in 2% tylose mucilage and administered orally, in a volume of 1 ml/100 gm body weight of the rat, in dosages of 1.56, 3.125, 6.25 and 12.5 mg/kg, each dose being administered to 6 rats. One hour later, the animals were subjected to electric shock and the ED50 was calculated as the dosage which protected 50% of the animals against tonic extension spasms in the rear extremities, with confidence limits for a 5% probability of error.

[8] = test system: fatty and cartilaginous tissue (kidney fat and sternum); conditions: known compound, general statement; cited from earlier work
[9] = 0.5 h, shock 30 minutes after administration
[10] = 2.5 h, shock 150 minutes after administration
[11] = 5 h, shock 300 minutes after administration
[12] = 50 mg/kg oral once a day, 17 days
[13] = 50 mg/kg oral once a day, 36 days
[14] = 50 mg/kg oral once a day, 38 days
[15] = 50 mg/kg oral once a day, 39 days
[16] = 400 mg/kg oral once a day, 2 days
[17] = 400 mg/kg oral once a day, 4 days
[18] = 400 mg/kg oral once a day, 9 days
[19] = 400 mg/kg oral once a day, 17 days
[20] = 400 mg/kg oral once a day, 36 days
[21] = 400 mg/kg oral once a day, 38 days
[22] = 400 mg/kg oral once a day, 39 days

## N/C(=C1\C(=O)c2ccccc2[S+]1[O-])c1ccccc1Cl (centres unmarked) [B, (E)-2-[(amino)-2-chlorophenylmethylene]-benzo[b]thiophen-3(2H)-one-1-oxide]
[1]; [9]
  ED50: 8.1 mg/kg
[1]; [10]
  ED50: 7.4 mg/kg
[1]; [11]
  ED50: 8.3 mg/kg

## CCN/C(=C1\C(=O)c2ccccc2[S+]1[O-])c1ccccc1 (centres unmarked) [C, (E)-2-[(ethylamino)phenylmethylene]-benzo[b]thiophen-3(2H)-one-1-oxide]
[1]; [9]
  ED50: 17.1 mg/kg
[1]; [10]
  ED50: 61 mg/kg
[1]; [11]
  ED50: 93.9 mg/kg

## N/C(=C1\C(=O)c2ccccc2[S+]1[O-])c1ccccc1 (centres unmarked) [Compound A, (E)-2-[(amino)phenylmethylene]-benzo[b]thiophen-3(2H)-one-1-oxide]
[2]; 500 mg/kg p.o., N=10
  Number of animals which died in 14 days: 0 animals
[2]; 1000 mg/kg p.o., N=16
  Number of animals which died in 14 days: 1 animals
[2]; 1410 mg/kg p.o., N=10
  Number of animals which died in 14 days: 0 animals
[2]; 2000 mg/kg p.o., N=10
  Number of animals which died in 14 days: 2 animals
[2]; 4000 mg/kg p.o., N=10
  Number of animals which died in 14 days: 1 animals
[2]; mouse, in vivo, po
  tolerance: well tolerated
[3]
  LD50 at 336 h: > 4000 mg/kg
[1]; [9]
  ED50: 12.5 mg/kg
[1]; [10]
  ED50: 35 mg/kg
[1]; [11]
  ED50: 88 mg/kg
[4]; [12]
  Number of animals with yellow kidney fat and sternum (number of animals dissected in brackets): 0 (1) animals
[4]; [13]
  Number of animals with yellow kidney fat and sternum (number of animals dissected in brackets): 0 (1) animals
[4]; [14]
  Number of animals with yellow kidney fat and sternum (number of animals dissected in brackets): 0 (1) animals
[4]; [15]
  Number of animals with yellow kidney fat and sternum (number of animals dissected in brackets): 0 (6) animals
[4]; [16]
  Number of animals with yellow kidney fat and sternum (number of animals dissected in brackets): 0 (1) animals
[4]; [17]
  Number of animals with yellow kidney fat and sternum (number of animals dissected in brackets): 0 (1) animals
[4]; [18]
  Number of animals with yellow kidney fat and sternum (number of animals dissected in brackets): 0 (1) animals
[4]; [19]
  Number of animals with yellow kidney fat and sternum (number of animals dissected in brackets): 0 (1) animals
[4]; [20]
  Number of animals with yellow kidney fat and sternum (number of animals dissected in brackets): 0 (1) animals
[4]; [21]
  Number of animals with yellow kidney fat and sternum (number of animals dissected in brackets): 0 (1) animals
[4]; [22]
  Number of animals with yellow kidney fat and sternum (number of animals dissected in brackets): 0 (2) animals
[5]; 1000 mg/kg p.o.
  Animals which died in 14 days: 0 animals
[5]; 2000 mg/kg p.o.
  Animals which died in 14 days: 4 animals
[5]; 4000 mg/kg p.o.
  Animals which died in 14 days: 7 animals
[5]; in vivo, po
  toxic effects: only had toxic effects in very large dosages
[6]; oral, 14 days, read-out: LD50 (confidence limits, p≤0.05)
  LD50 at 336 h: 2600 mg/kg
[6]; po, 1000 mg/kg p.o.
  mortality at 336 h: 0%
[6]; po, 2000 mg/kg p.o.
  mortality at 336 h: 40%
[6]; po, 4000 mg/kg p.o.
  mortality at 336 h: 70%
[6]; po, LD50 / ED50, read-out: average toxic dose relative to average therapeutic dose
  therapeutic index (LD50/ED50): 800
[7]; 1.56 mg/kg p.o.
  % protected: 0%
  animals protected: 0 animals
[7]; 3.125 mg/kg p.o.
  % protected: 67%
  animals protected: 4 animals
[7]; 6.25 mg/kg p.o.
  % protected: 83%
  animals protected: 5 animals
[7]; 12.5 mg/kg p.o.
  % protected: 100%
  animals protected: 6 animals
[7]; Rattus norvegicus, 1 h, oral, one hour, read-out: ED50 (confidence limits, p≤0.05)
  ED50: 3.25 mg/kg

## N/C(=C1/Sc2ccccc2C1=O)c1ccccc1 [Compound E, (E)-2-[(amino)phenylmethylene]-benzo[b]thiophen-3(2H)-one]
[4]; [12]
  Number of animals with yellow kidney fat and sternum (number of animals dissected in brackets): 0 (1) animals
[4]; [13]
  Number of animals with yellow kidney fat and sternum (number of animals dissected in brackets): 0 (1) animals
[4]; [14]
  Number of animals with yellow kidney fat and sternum (number of animals dissected in brackets): 0 (1) animals
[4]; [15]
  Number of animals with yellow kidney fat and sternum (number of animals dissected in brackets): 0 (6) animals
[4]; [16]
  Number of animals with yellow kidney fat and sternum (number of animals dissected in brackets): 0 (1) animals
[4]; [17]
  Number of animals with yellow kidney fat and sternum (number of animals dissected in brackets): 0 (1) animals
[4]; [18]
  Number of animals with yellow kidney fat and sternum (number of animals dissected in brackets): 0 (1) animals
[4]; [19]
  Number of animals with yellow kidney fat and sternum (number of animals dissected in brackets): 1 (1) animals
  degree of yellow coloration of kidney fat and sternum: very slight
[4]; [20]
  Number of animals with yellow kidney fat and sternum (number of animals dissected in brackets): 1 (1) animals
  degree of yellow coloration of kidney fat and sternum: marked
[4]; [21]
  Number of animals with yellow kidney fat and sternum (number of animals dissected in brackets): 1 (1) animals
  degree of yellow coloration of kidney fat and sternum: marked
[4]; [22]
  Number of animals with yellow kidney fat and sternum (number of animals dissected in brackets): 5 (5) animals
  degree of yellow coloration of kidney fat and sternum: marked
[4]; 400 mg/kg, from the 17th day p.a.
  yellow coloration of the kidney fat and sternum: slight at first but became marked later
[8]
  undesirable side effect: yellow coloration of fatty and cartilaginous tissue: strong yellow coloration
